Some test systems named below: DU-145; MDA-MB-231; SK-MEL-2; KM12; SF-539; IGROV-1; MCF7; MOLT-4; OVCAR-8; SW-620; MDA-N; UACC-62; A549; NCI/ADR-RES; OVCAR-3; PC-3; Hs-578T; HOP-62; COLO 205; A498.
Assay in all cases: growth of human tumour cells (NCI), 48 h

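Growth conditions: 96-well plates. Treatment: test compound, 48 hours, 5 concentrations. Analysis: linear interpolation between bracketing concentrations; unreached endpoints set to highest concentration. GI50 marks 50% less growth.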 Calls of active or inactive are those of the source. Rule as the data show it: active = GI50 up to about 1.1 µM and inactive = higher. Some results are limits rather than exact numbers.

In the case of `Cc1nn(C(=O)c2ccncc2)c2c1C(c1ccc(Cl)cc1)SC(=N)N2` (configuration not stated), the GI50 with DU-145, in the experiment with MDA-MB-231, in the experiment on SK-MEL-2, with KM12, with SF-539 and in the experiment on IGROV-1 was > 10 µM (inactive) each time. In addition, the GI50 in the experiment with MCF7, in the experiment on MOLT-4, in the experiment with OVCAR-8, in the experiment on SW-620, in the experiment on MDA-N and with UACC-62 was > 10 µM (inactive) throughout. Besides, the GI50 with A549, in the experiment with NCI/ADR-RES, with OVCAR-3, in the experiment on PC-3, with Hs-578T and in the experiment on HOP-62 was > 10 µM (inactive) throughout. Also, in the experiment with COLO 205, the GI50 was > 10 µM (inactive).

Regarding `O=C(O)c1ccc(Nc2cnc3cc(C(F)(F)F)ccc3n2)cc1`, the GI50 in the experiment with DU-145 was 58.5 µM (inactive); in the experiment on MDA-MB-231 it was 36.7 µM (inactive); in the experiment with KM12 it was 37.1 µM (inactive); with SF-539, 78 µM (inactive); in the experiment on IGROV-1, 25.3 µM (inactive); in the experiment on MCF7, 38 µM (inactive). The GI50 with MOLT-4 is 47.5 µM (inactive); in the experiment with OVCAR-8 it was 52.1 µM (inactive); in the experiment on SW-620, 69.8 µM (inactive); in the experiment on MDA-N it was 53.8 µM (inactive); in the experiment with UACC-62, 25.3 µM (inactive); in the experiment with A549, 42 µM (inactive). Moreover, the GI50 is 40.9 µM (inactive) with NCI/ADR-RES; 34.5 µM (inactive) with OVCAR-3; 80.7 µM (inactive) with PC-3; 40 µM (inactive) in the experiment with Hs-578T; 90.2 µM (inactive) with HOP-62; > 100 µM (inactive) with COLO 205.

As for `COc1cccc(-c2cc(O)c3cc(N4CCOCC4)ccc3n2)c1`, the GI50 in the experiment on DU-145 was 0.038 µM (active); in the experiment with MDA-MB-231 it was 0.13 µM (active); in the experiment with SK-MEL-2, 0.0313 µM (active); in the experiment with KM12, 0.0424 µM (active); in the experiment on SF-539, 0.0217 µM (active); in the experiment on IGROV-1, 0.0575 µM (active). Moreover, the GI50 with MCF7 was 0.0484 µM (active); with MOLT-4, 0.0391 µM (active); in the experiment with OVCAR-8, 0.0375 µM (active); in the experiment with SW-620, 0.0324 µM (active); with MDA-N it was 0.0069 µM (active); in the experiment on UACC-62, 0.0258 µM (active). Further, the GI50 is 0.113 µM (active) in the experiment on A549; 0.0845 µM (active) in the experiment with NCI/ADR-RES; 0.0201 µM (active) with OVCAR-3; 0.0364 µM (active) in the experiment with PC-3; 0.0184 µM (active) with Hs-578T; 0.0586 µM (active) in the experiment on HOP-62. Besides, the GI50 with COLO 205 is 0.0204 µM (active).

As for `C=CCc1cc(-c2n[nH]c(=S)[nH]2)ccc1N/N=N/c1ccc(C(=O)O)cc1`, the GI50 with DU-145 is > 100 µM (inactive); with MDA-MB-231, > 100 µM (inactive); in the experiment on SK-MEL-2, 58.1 µM (inactive); in the experiment on KM12, 40.2 µM (inactive); in the experiment with IGROV-1 it was 83 µM (inactive); with MCF7, 59.4 µM (inactive). Also, the GI50 in the experiment on MOLT-4 was 32.4 µM (inactive); in the experiment on OVCAR-8, 38.5 µM (inactive); in the experiment with SW-620, > 100 µM (inactive); in the experiment on MDA-N it was 66.2 µM (inactive); in the experiment on A498, > 100 µM (inactive); with A549, > 100 µM (inactive). The GI50 with NCI/ADR-RES is > 100 µM (inactive); in the experiment on OVCAR-3 it was 56 µM (inactive); in the experiment on PC-3, > 100 µM (inactive); in the experiment on Hs-578T, 44.6 µM (inactive); in the experiment on HOP-62, 81.3 µM (inactive); in the experiment with COLO 205, 22.6 µM (inactive).

Regarding `COC(=O)/C=C(\C)CC/C=C(\C)CCC(O)C(C)(C)O` (configuration not stated), the GI50 was > 100 µM (inactive) with MDA-MB-231; 15.9 µM (inactive) in the experiment on SK-MEL-2; 13.9 µM (inactive) in the experiment on KM12; 18.7 µM (inactive) in the experiment on SF-539; 25.8 µM (inactive) in the experiment with IGROV-1; 37 µM (inactive) in the experiment on MCF7. Also, the GI50 in the experiment with MOLT-4 was 15.2 µM (inactive); with OVCAR-8 it was 25.1 µM (inactive); in the experiment with SW-620 it was 22.7 µM (inactive); with MDA-N, 23.8 µM (inactive); in the experiment with A498, 33 µM (inactive); in the experiment with UACC-62, 25.1 µM (inactive). Further, the GI50 with A549 is 34.8 µM (inactive); in the experiment with NCI/ADR-RES it was 18.7 µM (inactive); in the experiment with OVCAR-3, 17.9 µM (inactive); in the experiment on PC-3, 14.8 µM (inactive); in the experiment with Hs-578T, 28.6 µM (inactive); in the experiment on HOP-62, 21.8 µM (inactive). In addition, the GI50 in the experiment with COLO 205 was 19.7 µM (inactive).

For the compound `CCOC(=O)c1nnn(CCCCO)c1C(=O)OCC`, the GI50 in the experiment with DU-145, in the experiment on MDA-MB-231, in the experiment on SK-MEL-2, with KM12, in the experiment with SF-539 and in the experiment with IGROV-1 was > 100 µM (inactive) each time. The GI50 in the experiment with MCF7, in the experiment with MOLT-4, in the experiment with OVCAR-8, in the experiment with SW-620, with MDA-N and in the experiment on UACC-62 was > 100 µM (inactive) each time. The GI50 in the experiment with A549, with NCI/ADR-RES, with PC-3, with Hs-578T, in the experiment with HOP-62 and in the experiment on COLO 205 was > 100 µM (inactive) in each case.

Regarding `Cc1c(NC(=O)CSC(=S)N2CCN(Cc3ccccc3)CC2)c(=O)n(-c2ccccc2)n1C`, the GI50 in the experiment on DU-145, in the experiment with MDA-MB-231, in the experiment with SK-MEL-2, in the experiment with KM12, with SF-539 and in the experiment on IGROV-1 was > 100 µM (inactive) each time. Also, the GI50 with MCF7, in the experiment with MOLT-4, with OVCAR-8, in the experiment on SW-620, in the experiment on MDA-N and with A549 was > 100 µM (inactive) each time. In addition, the GI50 with NCI/ADR-RES, in the experiment on OVCAR-3, in the experiment with PC-3, with Hs-578T, with HOP-62 and with COLO 205 was > 100 µM (inactive) in each case.

As to `O=Cc1cc2c(cc1-c1c(C=O)ccc3c1OCO3)OCO2`, the GI50 in the experiment with DU-145, in the experiment with MDA-MB-231, in the experiment with KM12, in the experiment on SF-539, in the experiment on IGROV-1 and in the experiment with MCF7 was > 10 µM (inactive) throughout. Besides, the GI50 in the experiment on MOLT-4, with OVCAR-8, in the experiment with SW-620, with MDA-N, in the experiment with UACC-62 and in the experiment with A549 was > 10 µM (inactive) each time. Besides, the GI50 with NCI/ADR-RES, in the experiment on OVCAR-3, in the experiment with PC-3, with Hs-578T, in the experiment on HOP-62 and with COLO 205 was > 10 µM (inactive) each time.

These data come from ChEMBL document CHEMBL1201862, “PubChem BioAssay data set” (2004).
